# Test results from US20230159538A1, “PYRROLIDINE-PYRAZOLES AS PYRUVATE KINASE ACTIVATORS” (Global Blood Therapeutics, Inc., priority 2020, published 2023).
# Target: T1, Human pyruvate kinase R (PKR) (Homo sapiens, UniProt P30613)
# T1 construct: Human pyruvate kinase R (PKR), residues 14-574; 6x-His (N, cleaved yes); 8x-Arg (N, cleaved yes); SUMO (N, cleaved yes); host or cells: E. coli
# Assay: Biochemical assay for activation of pyruvate kinase R (Kinase-Glo luminescence, ATP generation)
# Settings: for AC50: 0.1 nM PKR, 2 mM FBP, 0.3 mM ADP, 0.1 mM PEP; for PKR % activation: maximal activation level relative to the activation level achieved by AG-348 @ 10 μM
# Method: Proteins were translated as fusions with 6×-His, 8×-Arg, and SUMO at the N-terminus. […] All proteins were cloned, expressed in E. coli, and purified using similar protocols. Cells were grown at 30° C. in Luria-Bertani broth supplemented with 0.4% glucose to OD600=0.8 and induced with 0.4 mM IPTG at 16° C. for 18 hours. Cells were harvested by centrifugation, resuspended in 50 mM potassium phosphate pH 8.0, 500 mM NaCl, 25 mM imidazole pH 8.0, and 3 mM β-mercaptoethanol. Cells were lysed using a LM20 microfluidizer from Microfluidics (Westwood, Mass.). The crude lysate was immediately supplemented with 0.2 mM phenylmethylsulfonyl fluoride (PMSF) and centrifuged at 20,000 g for 20 minutes. The soluble fraction was subsequently incubated with 2 mL Ni-NTA (GE Healthcare) per 1,000 ODs for 1 hour at 4° C. Following incubation with the Ni-NTA resin, lysate was removed by pelleting resin at 2,500 g for 3 minutes and washed 3 times with 9 bed volumes of 50 mM potassium phosphate pH 8.0, 500 mM NaCl, 25 mM imidazole, and 3 mM β-mercaptoethanol. Following the batch wash Ni-NTA resin was loaded onto a gravity column and His-tagged protein was eluted with 6 bed volumes of 10 mM Tris/HCl pH 8.0, 200 mM NaCl, 500 mM imidazole, and 3 mM β-mercaptoethanol. Eluted protein was dialyzed overnight against 10 mM Tris/HCl pH 8.0, 200 mM NaCl, and 1 mM DTT and the 6×-His-8×-Arg-SUMO-tag was cleaved using a 20:1 molar ratio of protein:3C protease. The protein was purified by anion exchange chromatography on a HiTrapQ or MonoQ 10/100 GL column (GE Healthcare) via a linear NaCl gradient and twice by size exclusion chromatography using a Superdex S200 26/60 column (GE Healthcare) run in 10 mM Tris/HCl pH 8.0, 200 mM NaCl, 10 mM MgCl2, 1 mM DTT. Proteins were concentrated to ˜12 mg/mL for crystallization and flash frozen for storage.
# Biochemical Assay for Activation of Pyruvate Kinase R
# Activation of pyruvate kinase R (PKR) and pyruvate kinase M2 (PKM2) were measured using a luminescence based measurement of ATP generation and the Kinase-Glo luminescent kinase reagent kit.
# T1 sequence (P30613 14-574): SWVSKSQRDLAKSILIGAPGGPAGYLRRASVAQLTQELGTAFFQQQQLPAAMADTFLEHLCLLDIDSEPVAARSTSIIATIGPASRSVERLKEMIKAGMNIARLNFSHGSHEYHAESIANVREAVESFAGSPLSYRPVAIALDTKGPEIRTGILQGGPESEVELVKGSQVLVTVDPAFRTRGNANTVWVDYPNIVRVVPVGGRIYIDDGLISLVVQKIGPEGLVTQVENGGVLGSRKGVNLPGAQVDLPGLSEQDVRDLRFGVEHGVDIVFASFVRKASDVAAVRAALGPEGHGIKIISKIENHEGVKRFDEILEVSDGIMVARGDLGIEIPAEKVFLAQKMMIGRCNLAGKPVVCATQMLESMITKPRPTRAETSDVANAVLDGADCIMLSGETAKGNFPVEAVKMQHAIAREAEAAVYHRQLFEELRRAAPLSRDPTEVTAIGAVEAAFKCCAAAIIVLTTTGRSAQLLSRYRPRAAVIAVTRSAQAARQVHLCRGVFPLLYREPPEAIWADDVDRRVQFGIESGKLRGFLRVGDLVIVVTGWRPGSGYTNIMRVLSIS
Compound,AC50,PKR % activation
"O=C([C@H](CO)c1ccccc1)N1Cc2cn(S(=O)(=O)c3ccc4ncccc4c3)nc2C1 [Compound 82, (2S)-3-hydroxy-2-phenyl-1-[2-(quinoline-6-sulfonyl)-2H,4H,5H,6H-pyrrolo[3,4-c]pyrazol-5-yl]propan-1-one]",5 nM,–
"COc1ccc(S(=O)(=O)n2cc3c(n2)CN(C(=O)[C@H](O)c2ncccc2F)C3)cc1 (single isomer, unassigned) [Compound 87, (2R)-2-(3-fluoropyridin-2-yl)-2-hydroxy-1-[2-(4-methoxybenzenesulfonyl)-2H,4H,5H,6H-pyrrolo[3,4-c]pyrazol-5-yl]ethan-1-one or (2R)-2-(3-fluoropyridin-2-yl)-2-hydroxy-1-[2-(4-methoxybenzenesulfonyl)-2H,4H,5H,6H-pyrrolo[3,4-c]pyrazol-5-yl]ethan-1-one]",25 nM,156%
"O=C([C@H](O)c1ccccc1F)N1Cc2cn(S(=O)(=O)c3ccc(OC(F)F)cc3)nc2C1 [Compound 72, (2R)-1-[2-[4-(difluoromethoxy)benzenesulfonyl]-4H,6H-pyrrolo[3,4-c]pyrazol-5-yl]-2-(2-fluorophenyl)-2-hydroxyethanone]",6 nM,–
"O=C1CN([C@@H](C(=O)N2Cc3cn(S(=O)(=O)c4ccc(OC(F)F)cc4)nc3C2)c2ccccc2)C1 (single isomer, unassigned) [Compound 92, 1-[(1R)-2-{2-[4-(difluoromethoxy)benzenesulfonyl]-2H,4H,5H,6H-pyrrolo[3,4-c]pyrazol-5-yl}-2-oxo-1-phenylethyl]azetidin-3-one or 1-[(1S)-2-{2-[4-(difluoromethoxy)benzenesulfonyl]-2H,4H,5H,6H-pyrrolo[3,4-c]pyrazol-5-yl}-2-oxo-1-phenylethyl]azetidin-3-one]",800 nM,120%
"O=C([C@H](CO)c1ncccc1F)N1Cc2cn(S(=O)(=O)c3ccc4ncccc4c3)nc2C1 (single isomer, unassigned) [Compound 102, (2S)-2-(3-fluoropyridin-2-yl)-3-hydroxy-1-[2-(quinoline-6-sulfonyl)-2H,4H,5H,6H-pyrrolo[3,4-c]pyrazol-5-yl]propan-1-one or (2R)-2-(3-fluoropyridin-2-yl)-3-hydroxy-1-[2-(quinoline-6-sulfonyl)-2H,4H,5H,6H-pyrrolo[3,4-c]pyrazol-5-yl]propan-1-one]",12 nM,81%
C[C@@H](O)[C@H](C(=O)N1Cc2cn(S(=O)(=O)c3ccc4ncsc4c3)nc2C1)c1ccccc1 [Compound 6],2530 nM,150%
"O=C(N1Cc2cn(S(=O)(=O)c3ccc4ncsc4c3)nc2C1)C1(c2ccccc2)CCOC1 (centres unmarked) [Compound 18, 6-{[5-(3-phenyloxolane-3-carbonyl)-2H,4H,5H,6H-pyrrolo[3,4-c]pyrazol-2-yl]sulfonyl}-1,3-benzothiazole]",83 nM,–
"N[C@@H](C(=O)N1Cc2cn(S(=O)(=O)c3ccc(OC(F)F)cc3)nc2C1)c1cccc(OC(F)(F)F)c1 [Compound 30, (2R)-2-amino-1-{2-[4-(difluoromethoxy)benzenesulfonyl]-2H,4H,5H,6H-pyrrolo[3,4-c]pyrazol-5-yl}-2-[3-(trifluoromethoxy)phenyl]ethan-1-one]",371 nM,–
"N[C@@H](C(=O)N1Cc2cn(S(=O)(=O)c3ccc4ncsc4c3)nc2C1)c1ccccc1Cl [Compound 52, (2R)-2-amino-1-[2-(1,3-benzothiazole-6-sulfonyl)-2H,4H,5H,6H-pyrrolo[3,4-c]pyrazol-5-yl]-2-(2-chlorophenyl)ethan-1-one]",13 nM,–
"O=C([C@H](CO)c1ccccc1)N1Cc2cn(S(=O)(=O)c3ccc4nccnc4c3)nc2C1 [Compound 94, (2S)-3-hydroxy-2-phenyl-1-[2-(quinoxaline-6-sulfonyl)-2H,4H,5H,6H-pyrrolo[3,4-c]pyrazol-5-yl]propan-1-one]",17 nM,–
